Data as given in PubChem BioAssay (NCI).
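A five-concentration, 48-hour dose response in 96-well plates underlies each endpoint, interpolated linearly between surrounding concentrations. TGI is the concentration that stops growth completely.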

How the values were obtained:
Assay in all cases: NCI-60 cell line screen, 48 h
[1] = tested on: RXF 393 renal
[2] = tested on: HCT-15 colon
[3] = tested on: SK-OV-3 ovarian
[4] = tested on: TK-10 renal
[5] = tested on: UACC-62 melanoma
[6] = tested on: ACHN renal
[7] = tested on: MOLT-4 leukemia
[8] = tested on: OVCAR-5 ovarian
[9] = tested on: SK-MEL-28 melanoma
[10] = tested on: A549 NSCLC
[11] = tested on: A498 renal
[12] = tested on: SNB-19 CNS
[13] = tested on: MALME-3M melanoma
[14] = tested on: M14 melanoma
[15] = tested on: U251 CNS
[16] = tested on: RPMI-8226 leukemia
[17] = tested on: CCRF-CEM leukemia
[18] = tested on: NCI-H23 lung
[19] = tested on: MDA-MB-435
[20] = tested on: K-562 leukemia
[21] = tested on: SR leukemia
[22] = tested on: HS 578T breast
[23] = tested on: MDA-N
[24] = tested on: NCI/ADR-RES ovarian
[25] = tested on: SK-MEL-5 melanoma
[26] = tested on: LOX IMVI melanoma
[27] = tested on: OVCAR-4 ovarian
[28] = tested on: HCT-116 colon
[29] = tested on: T-47D breast
[30] = tested on: PC-3 prostate
[31] = tested on: IGROV1 ovarian
[32] = tested on: UACC-257 melanoma
[33] = tested on: NCI-H522 lung
[34] = tested on: OVCAR-8 ovarian
[35] = tested on: HOP-62 NSCLC
[36] = tested on: SNB-75 CNS
[37] = tested on: SF-539 CNS
[38] = tested on: NCI-H226 lung
[39] = tested on: SW-620 colon
[40] = tested on: DU-145 prostate
[41] = tested on: CAKI-1 renal
[42] = tested on: 786-0 renal
[43] = tested on: MCF7 breast
[44] = tested on: OVCAR-3 ovarian
[45] = tested on: SF-295 CNS
[46] = tested on: EKVX NSCLC
[47] = tested on: HCC-2998 colon
[48] = tested on: COLO 205 colon
[49] = tested on: SF-268 CNS
[50] = tested on: HL-60(TB) leukemia
[51] = tested on: HT29 colon
[52] = tested on: HOP-92 NSCLC
[53] = tested on: MDA-MB-231 breast
[54] = tested on: NCI-H460 lung
[55] = tested on: SN12C renal
[56] = tested on: KM12 colon
[57] = tested on: SK-MEL-2 melanoma
[58] = tested on: UO-31 renal

Measured: TGI

CCOC(=O)c1sc2c(c1OC(=O)c1ccc(OC)cc1)c(=O)n(-c1ccccc1)c(=S)n2-c1ccccc1
63.4 µM: [52]
38 µM: [47]
93.2 µM: [21]
73 µM: [38]
24.6 µM: [27]
23 µM: [33]
72.2 µM: [24]
41.4 µM: [11]
54.2 µM: [53]
not listed: [57] | [58]
> 100 µM: all other assays above

CC1CN=C(N(C(=O)Nc2ccccc2)c2ccc(Cl)c(Cl)c2)S1 (configuration not stated)
40.4 µM: [57]
69.9 µM: [47]
93.3 µM: [26]
93.8 µM: [42]
56.6 µM: [55]
52.3 µM: [52]
> 10 µM: [7] | [15] | [17] | [20] | [23] | [44] | [48]
78 µM: [51]
34.5 µM: [25]
64.9 µM: [11]
53.1 µM: [54]
not listed: [1] | [5] | [19] | [33] | [38]
> 100 µM: all other assays above

COc1cc2c(cc1OC)C1C[C@]3(CCN1CC2)C(=O)N(c1ccccc1)C(=O)N3C(C)=O (some centres not stated)
not listed: [3] | [5] | [7] | [13] | [16] | [17] | [20] | [21] | [22] | [26] | [29] | [32] | [33] | [35] | [42] | [43] | [47] | [50] | [54] | [57]
> 200 µM: all other assays above
